Reference: patent US20120225123A1, “Use of Synergistic Combinations of an Avermectin and an Antineoplastic Compounds for the Treatment of Hematological Malignancies” (UNIVERSITY HEALTH NETWORK, priority 2009, published 2012)

Experiments:
mice = conditions: oral; cited from earlier work
OCI-AML2 cells = assay: Cytosolic calcium, Indo-1 AM staining; assay type: cell-based, human
Description: Changes in cytosolic calcium concentration were detected with the fluorescent dye, Indo-1 AM (final concentration 6 μM) as previously described. ^17
Plasma membrane hyperpolarization can lead to calcium influx^23. Therefore, the effects of IVM on calcium influx in leukemia cells was tested. OCI-AML2 cells were treated with IVM and the concentration of intracellular calcium was measured by staining cells with the ratiometric dye, Indo-1 AM.

[1] = system: STAT1 mRNA in U937 and HL60 leukemia cells; assay: Gene expression by Q-RT-PCR, U937 and HL60; assay type: cell-based, human
Description: Gene expression changes were evaluated in OCI AML2, 0937, HL60, DU145 and PPC-1 cells by real-time Q-RT-PCRas described previously^15, 47. The expression level of STAT1A, STAT1B, TRIM22, OAS1 and IFIT3 before and after incubation of leukemia cells with ivermectin was evaluated.

ivermectin
LD50 (mice): 28 to 30 mg/kg
intracellular calcium (OCI-AML2 cells): increased intracellular calcium
STAT1 mRNA [1]: demonstrated increased STAT1 mRNA
